In patent US20260285924A1, “PEPTIDE THERAPEUTICS” (priority 2023, published 2026):

Columns and labels:
[1] = test system: A-to-I RNA editing reporter (ADAR) in A375; assay: A-to-I PepTile (REPTILE) screen: A-to-I editing of dsRNA hairpin reporter by NGS; type: cell-based, human; conditions: for % A-to-I editing (IFNα): IFNα 6000 U/ml for 48 hours; for % A-to-I editing (Basal): no treatment
Source text: (§1) FIGS. 12A-12D. A-to-I PepTile screen. (A) Composition of A-to-I PepTile linrary screen, and schematic description of the lentiviral expression vector. (B) Experimental workflow. A375 cells were transduced at low MOI, and then treated or not with IFNα for 48 hrs. RNA was extracted and Peptide_ADARreporter RNA species were amplified and sequenced by NGS. (C) Dot plot of A-to-I PepTile library effect on A-to-I editing with or without IFNα treatment. Red line is the mean A-to-I editing of all the 8088 peptides (>100 read counts) no treatment: 25.75% IFNα: 37.6%. (D) Dot plot of A-to-I PepTile library fitness effect upon IFNα for 48 hrs.
FIGS. 17A-17F show A-to-I RNA Editing PiTile (REPTILE) screen in A375. (A) A-to-I RNA Editing PiTile (REPTILE) library design consist of fragmentation of all known ADAR1, ADAR2 interactors and all human double stranded RNA-binding protein into 40 amino acid long peptide. This library was then cloned into a lentivirus vector that also encode a DNA-encoded RNA loop reporter (A-to-I Rep) that is edited by ADAR proteins in cells at the RNA level. When the construct is expressed, the RNA loop gets edited on a single Adenosine, while the 40-mer peptide get expressed at the protein level. Then we can measure the impact of the peptide expression on the editing rate of the RNA loop reporter by sequencing (NGS and Sanger). (B) Experimental workflow of REPTILE screen in A375 cell line. Cells were transduced with the REPTILE library, and then treated for 48 hours with IFNα. Following the treatment, RNA was harvested, converted into cDNA and amplicon library containing peptide Identity (barcode) linked to the RNA loop reporter were prepared for NGS. (C) Result of the A375 REPTILE screen in the no treatment condition. Each dot represents a unique peptide that is associated with an A-to-I editing rate that was measured on the RNA loop. (D) Result of the A375 REPTILE screen in the IFNα condition. Each dot represents a unique peptide that is associated with an A-to-I editing rate that was measured on the RNA loop. Red line represent the A-to-I editing mean, Dash blue line represent 2 times the standard deviation of the % A-to-I editing across all the datasets. This cutoff was used to defined peptides hits that modulate RNA A-to-I editing. (E) Peptide A-to-I Inhibitor Hits intersection between no treatment (% A-to-I editing<15%) and IFNα (% A-to-I editing<27%) conditions. (F) Peptide A-to-I Enhancers Hits intersection between no treatment (% A-to-I editing>36%) and IFNα (% A-to-I editing>47%) conditions.
Provided herein is a screening methodology to measure the effect of small peptide on A-to-I RNA editing in situ and screen thousands of peptides in a single experiment. First, a library of peptides with the potential of impairing A-to-I editing was designed and built. ADAR enzymes edit RNA only on double-stranded RNA structures and via ADAR's double stranded RNA-Binding Domain (dsRBD). […] The A-to-I PepTile library is composed of 19 Human proteins having dsRBD and 34 known protein-protein interactors of ADAR1/2. All these proteins were tiled into 40-mer peptides every 4 amino acids (FIG. 12A). To measure A-to-I editing, a biosensor consisting of a 71 bp dsRNA hairpin structure that gets A-to-I edited at a rate of 25% in A375 melanoma cells, and ~37% upon IFNα treatment was used. This A-to-I editing reporter is fused with DNA sequence encoding for a peptide from the A-to-I PepTile library. The A-to-I PepTile plasmid pool (10304 elements) was used to produced lentiviruses and transduced A375 cells at a low multiplicity of infection (MOI) (FIG. 12B). A part of the infected cells was treated with IFNα at 6000 U/ml for 48 hours, and then bulk RNA of the basal and treated condition was harvested. RNA was then retrotranscribed into cDNA and sequenced by Next-Generation Sequencing (NGS). […]

A375 cells = assay: A-to-I PepTile screen: fitness effect upon IFNα (PepTile abundance untreated vs treated); type: cell-based, human
Source text: as §1
Provided herein is a screening methodology to measure the effect of small peptide on A-to-I RNA editing in situ and screen thousands of peptides in a single experiment. First, a library of peptides with the potential of impairing A-to-I editing was designed and built. ADAR enzymes edit RNA only on double-stranded RNA structures and via ADAR's double stranded RNA-Binding Domain (dsRBD). […] The A-to-I PepTile library is composed of 19 Human proteins having dsRBD and 34 known protein-protein interactors of ADAR1/2. All these proteins were tiled into 40-mer peptides every 4 amino acids (FIG. 12A). To measure A-to-I editing, a biosensor consisting of a 71 bp dsRNA hairpin structure that gets A-to-I edited at a rate of 25% in A375 melanoma cells, and ~37% upon IFNα treatment was used. This A-to-I editing reporter is fused with DNA sequence encoding for a peptide from the A-to-I PepTile library. The A-to-I PepTile plasmid pool (10304 elements) was used to produced lentiviruses and transduced A375 cells at a low multiplicity of infection (MOI) (FIG. 12B). A part of the infected cells was treated with IFNα at 6000 U/ml for 48 hours, and then bulk RNA of the basal and treated condition was harvested. RNA was then retrotranscribed into cDNA and sequenced by Next-Generation Sequencing (NGS). With the sequencing data, the A-to-I editing percentage of the RNA reporter for each PepTile is calculated since both elements are encoded on the same transcript. Moreover, with this screen one can also measure the abundance of the PepTiles between the untreated and treated conditions and determine Fitness score associated to every PepTile. To ensure a robust and more accurate A-to-I editing % estimation a cut-off of 100 read counts was set for each PepTile. […] SEQ ID NOs: 2125-2147 are A-to-I peptide inhibitors and SEQ ID NOs: 2148-2210 are A-to-I activators. In addition, 117 PepTiles were identified that either synergize (SEQ ID NOs: 2211-2243) or protect (SEQ ID NOs: 2244-2327) to IFNα-induced cell death (FIG. 12D and Table 5). These PepTiles are potential new therapeutic agents that can modulate the Interferon pathway. They may be beneficial in treating inflammatory conditions and may also enhance the effectiveness of cancer immunotherapy through synergistic effects.

[2] = IFNα 6000 U/ml for 48 hours vs untreated

Sequence | % A-to-I editing (IFNα) [1] [%] | % A-to-I editing (Basal) [1] [%] | Fitness Score IFNα (A375 cells; [2]) | Fitness Score IFNα (A375 cells; A375, PepTile abundance upon IFNα treatment, negative = synthetic lethal, positive = protector)
MIQDPAQAEAYTIYWLVAALAPLVAAPPRPSQGRLAGREWS [UBE2I_32] | 47.26 | 44.43 | -0.02 | –
MVGEYSNLEVNASWTKERWNQEFTKHQVLIMTCYVALNVLK [DICER1_31] | 48.57 | 37.36 | 0.94 | –
MRFLYSELMKYNSQTAKDSIFEPAKGGEKLQIKKTVSFHLY [ADAR_231] | 65.21 | 56.37 | 0.14 | –
MLPERLEVNGRESEEENLNKSEISQVFEIALKRNLPVNFEV [STAU1_42] | 18.40 | 11.00 | 0.46 | –
MVVLLCRQPCASQSSLKDINWDSSQWQPLIQDRCFLSWLVK [UPF1_52] | 47.63 | 50.56 | -0.80 | –
MNKSEISLVFEIALKRNMPVSFEVIKESGPPHMKSFVTRVS [STAU2_44] | 23.54 | 6.78 | 0.07 | –
MQVEQMEIPPVELPPEEPPNICQLIPELELLPEKEKEKEKE [RAD21_124] | 48.70 | 39.15 | 1.20 | –
MFSSRGINFRTRHLMQDLRMLMPHSKADTKMDRKDKLFVIN [BRIX1_17] | 47.02 | 38.66 | 1.21 | –
MFPAVCAHSKKQGKQEAADAALRVLIGENEKAERMGFTEVT [ADAR_193] | 22.77 | 11.47 | 0.57 | –
MLEQCNTELKKYSHVNKKALDQFVNFSEQKEKLIKRQEELD [SMC3_243] | 47.01 | 42.74 | -0.61 | –
MAVEITGAGPGASSVCNSAPGSGPSSPNSSHSTIAENGFTG [HDAC5_75] | 55.71 | 40.79 | 0.76 | –
MVISTFKKRAVEITGAGPGASSVCNSAPGSGPSSPNSSHST [HDAC5_73] | 63.84 | 49.71 | 0.74 | –
MKKNIAAERKEAKQEKEEADRYQRLKDEVVRAQVQLQLFKL [SMC1A_48] | 26.12 | 11.19 | 1.61 | –
MLRYFDEKELELMLCGMQEIDMSDWQKSTIYRHYTKNSKQI [WWP2_185] | 25.97 | 13.42 | -0.08 | –
MSGTSYSGYEAAVYSAASSYYQQQQQQQKQAAAAAAAAAAT [ZFR_66] | 49.01 | 40.81 | 2.04 | 2.04
MRNAEFLTCNIPTSNASNNMVTTEKVENGQEPVIKLENRQE [ADAR_97] | 51.11 | 40.12 | -1.27 | –
MKVPAVPVQWGNCGDTGTRSAGPLRRNYNFIAAVVEKVAPS [HTRA4_36] | 25.56 | 12.55 | 0.18 | –
MSQHRKKEADSVYGEWVPVEKNGEENKDDDNVFSSNLPSEP [SON_53] | 25.27 | 14.38 | 1.03 | –
MKTPIQVLHEYGMKTKNIPVYECERSDVQIHVPTFTFRVTV [PRKRA_9] | 48.95 | 43.02 | -0.21 | –
METVSSNSSNNTGNSTTETSSTLEVRTQGPILTASGKNPVM [STRBP_120] | 22.73 | 10.91 | 0.07 | –
MCLSSHFQELSIYQDQEQRILKFLEELGEGKATTAHDLSGK [ADAR_32] | 48.60 | 38.66 | -0.47 | –
MQVTISVTSPLMREDPSTDPGVEEPQADAGDVLSPKKCLES [ZFR2_183] | 54.85 | 40.13 | -0.70 | –
MCSFNDPNAKEMHLKGRRHRLQYKKKVNPDLQVEVKPSIRA [ZFR_148] | 48.58 | 37.77 | -1.00 | –
MGPGDAVRRVLECVATGTLLTDGPGLQDPCERDQTDALEPM [ZFR2_208] | 51.37 | 37.66 | 0.67 | –
MCYYVFGDLSGGCESYLVNLSLNDNDGSSGASDQDTLAPLP [DVL2_126] | 54.28 | 43.60 | 0.54 | –
